How the values were obtained:
[1] = test system: histamine-induced bronchoconstriction; assay: Bronchodilator activity in the Konzett-Rossler guinea pig preparation (histamine-induced bronchoconstriction); type: in vivo; design: key to Histamine Blockade: % blockade = 100 − (post-dose response / mean of 3 prior) × 100; details: for Histamine Blockade: table 7, intravenous, 3 mg/kg except as otherwise indicated, aminophylline 10 mg/kg
Experimental: Bronchodilator activity of representative triazolopyridazine compounds of the invention is examined in the Konzett-Rossler quinea pig preparation according to accepted procedures. See Knozett and Rossler; Arch. f. Exp. Path. u. Pharmakol. […] Int. Pharmacodyn. […] In this procedure an anesthetized guinea pig is artificially respired with a fixed volume of air. The volume of air is selected to slightly exceed the capacity of the guinea pig's lungs, and the excess air or "overflow" is measured. Test compounds are evaluated by administering a test compound intravenously 2 minutes prior to administration of an agonist compound (histamine, serotonin or acetylcholine) following 3 previous agonist doses resulting in relatively uniform (±10 percent) bronchoconstriction. […] This is calculated by dividing the "overflow" agonist response measured after administration of the test compound by the average of the 3 preceding agonist responses, multiplying by 100 and subtracting this value from 100 percent.

[2] = 30 minute LD50 (acute toxicity without sound); details: mouse, in vivo, ip
Experimental: (§1) The interaction of sound with the convulsive threshold of drugs is a known phenomenon which can be used to evaluate such side effects. […] In a procedure for pharmacological evaluation, the lowering of the convulsive threshold, or the lowering of the LD50, by sound can be studied in mice.
(§2) In the test operations, mice are administered a test compound by intraperitoneal injection at various dosages, and the number of mice showing tonic convulsions and the number of fatalities occurring within 30 minutes is recorded.

[3] = Audiogenic convulsive side effects (sound challenge: tonic convulsions and fatalities); details: mouse, ip
Experimental: as §1, §2
(§3) The sound exposure is carried out by placing the mice in a sound insulated cage with a bell which emits 120 decibels of sound, and activating the bell for two minutes. The number of tonic convulsions and fatalities are then recorded to determine the ED50 and LD50 in the presence of the sound challenge.

mice [4] = assay: in vivo; details: mouse
Experimental: as §1, §2, §3

[5] = test system: histamine-induced bronchoconstriction; details: in words; cited from earlier work
mice [6] = details: laboratory animals; in words; U.S. Pat. No. 4,136,182; cited from earlier work
mice [7] = details: laboratory animals; in words; U.S. Pat. No. 4,136,182; cited from earlier work; remark: listed apart in the source

Compound	percent blockade of histamine ([1]; 3 mg/kg intravenously, 2 minutes prior to histamine) [%]	Histamine Blockade [1]	LD50 at 0.5 h [2] [mg/kg]	LD50 ([3]; in vivo) [mg/kg]	TD50 [3] [mg/kg]	audiogenic convulsive threshold / sound-induced toxicity (mice [4])	effect on bronchoconstriction [5]	TD50 ([3]; in vivo) [mg/kg]	LD50 (toxicity) (mice [6])	audiogenic convulsions (mice [7])
Cc1cc2nnc(C)n2nc1N1CCOCC1 [Example 2, 3,7-dimethyl-6-morpholino-s-triazolo[4,3-b]pyridazine]	61	61	228	148	135	much less reduction in convulsive threshold				
Cc1cc(-c2ccccc2)c2nnc(N3CCOCC3)n2n1 [6-methyl-3-(4-morpholinyl)-8-phenyl-s-triazolo[4,3-b]pyridazine]							potentiate bronchoconstriction			
c1ccc(-c2nnc3ccc(N4CCOCC4)nn23)cc1 [6-morpholino-3-phenyl-s-triazolo[4,3-b]pyridazine, reference compound]		22	> 400	30			potent bronchodilator	5	high LD50 (low toxicity)	produce audiogenic convulsions in laboratory animals at relatively low dosages

Reference: patent US4526890A, “3,6,7,8-Substituted-s-triazolo[4,3-b]pyridazines as bronchodilators” (The Dow Chemical Company, priority 1981, dated 1985)
